In US7138361B2, “Herbicidal heterocycles” (E. I. du Pont de Nemours and Company, priority 2000, dated 2006):

Legend:
Type in all cases: in vivo
[1] = test system: Surinam grass (Brachiaria decumbens); test: Test B preemergence
Text: (§1) Seeds selected from barnyardgrass (Echinochloa crus-galli), Surinam grass (Brachiaria decumbens), cocklebur (Xanthium strumarium), corn (Zea mays), crabgrass (Digitaria sanguinalis), giant foxtail (Setaria faberii), lambsquarters (Chenopodium album), morning glory (Ipomoea hederacea), pigweed (Amaranthus retroflexus), rice (Oryza saliva) and velvetleaf (Abutilon theophrasti) were planted and treated preemergence with test chemicals formulated in a non-phytotoxic solvent mixture which included a surfactant.
(§2) At the same time, plants selected from these crop and weed species and also blackgrass (Alopecurus myosuroides), wheat (Triticum aestivum) and wild oat (Avena fatua) were treated with postemergence applications of test chemicals formulated in the same manner. Plants ranged in height from 2 to 18 cm (1- to 4-leaf stage) for postemergence treatments. Plant species in the flooded paddy test consisted of rice (Oryza saliva), smallflower flatsedge (Cyperus difformis), duck salad (Heteranthera limosa) and barnyardgrass (Echinochloa crus-galli) grown to the 2-leaf stage for testing. Treated plants and controls were maintained in a greenhouse for 13 to 15 days, after which time all species were compared to controls and visually evaluated. Plant response ratings, summarized in Table B, are based on a scale of 0 to 100 where 0 is no effect and 100 is complete control. A dash (-) response means no test result.

[2] = test system: cocklebur (Xanthium strumarium); test: Test B preemergence
Text: as §1, §2

[3] = test system: pigweed (Amaranthus retroflexus); test: Test B preemergence
Text: as §1, §2

rice (Oryza saliva) [4] = test: Test B preemergence
Text: as §1, §2

[5] = test system: barnyardgrass (Echinochloa crus-galli); test: Test B preemergence
Text: as §1, §2

[6] = test system: morning glory (Ipomoea hederacea); test: Test B preemergence
Text: as §1, §2

[7] = test system: giant foxtail (Setaria faberii); test: Test B preemergence
Text: as §1, §2

[8] = test system: crabgrass (Digitaria sanguinalis); test: Test B preemergence
Text: as §1, §2

corn (Zea mays) [9] = test: Test B preemergence
Text: as §1, §2

[10] = test system: lambsquarters (Chenopodium album); test: Test B preemergence
Text: as §1, §2

[11] = test system: velvetleaf (Abutilon theophrasti); test: Test B preemergence
Text: as §1, §2

rice (Oryza saliva) [12] = test: Test C flooded paddy test; details: for Rice plant response rating: Flooded Paddy, scale 0 to 100, 0 no effect, 100 complete control; for Plant response rating, Rice: flooded paddy test, scale 0 to 100 (0 no effect, 100 complete control)
Description: (§3) At the same time, plants selected from these crop and weed species and also winter barley (Hordeum vulgare), blackgrass (Alopecurus myosuroides), canary grass (Phalaris minor), chickweed (Stellaria media), downy brome (Bromus tectorum), green foxtail (Setaria viridis), Italian ryegrass (Lolium multiflorum), wheat (Triticum aestivum), wild oat (Avena fatua) and windgrass (Apera spica-venti) were treated with postemergence applications of some of the test chemicals formulated in the same manner. Plants ranged in height from 2 to 18 cm (1- to 4-leaf stage) for postemergence treatments. Plant species in the flooded paddy test consisted of rice (Oryza saliva), smallflower flatsedge (Cyperus difformis), duck salad (Heteranthera limosa) and barnyardgrass (Echinochloa crus-galli) grown to the 2-leaf stage for testing. Treated plants and controls were maintained in a greenhouse for 12 to 14 days, after which time all species were compared to controls and visually evaluated. Plant response ratings, summarized in Table C, are based on a scale of 0 to 100 where 0 is no effect and 100 is complete control. A dash (-) response means no test result.

[13] = test system: barnyardgrass (Echinochloa crus-galli); test: Test C flooded paddy test; details: for Barnyardgrass plant response rating: Flooded Paddy, scale 0 to 100, 0 no effect, 100 complete control; for Plant response rating, Barnyardgrass: flooded paddy test, scale 0 to 100 (0 no effect, 100 complete control)
Description: as §3

[14] = test system: smallflower flatsedge (Cyperus difformis); test: Test C flooded paddy test; details: for Flatsedge plant response rating: Flooded Paddy, scale 0 to 100, 0 no effect, 100 complete control; for Plant response rating, Flatsedge: flooded paddy test, scale 0 to 100 (0 no effect, 100 complete control)
Description: as §3

[15] = test system: duck salad (Heteranthera limosa); test: Test C flooded paddy test; details: for Ducksalad plant response rating: Flooded Paddy, scale 0 to 100, 0 no effect, 100 complete control; for Plant response rating, Ducksalad: flooded paddy test, scale 0 to 100 (0 no effect, 100 complete control)
Description: as §3

[16] = test system: Surinam grass (Brachiaria decumbens); test: Test B postemergence
Text: as §1, §2

[17] = test system: wheat (Triticum aestivum); test: Test B postemergence
Text: as §1, §2

[18] = test system: cocklebur (Xanthium strumarium); test: Test B postemergence
Text: as §1, §2

[19] = test system: pigweed (Amaranthus retroflexus); test: Test B postemergence
Text: as §1, §2

[20] = test system: blackgrass (Alopecurus myosuroides); test: Test B postemergence
Text: as §1, §2

[21] = test system: barnyardgrass (Echinochloa crus-galli); test: Test B postemergence
Text: as §1, §2

wild oat (Avena fatua) = test: Test B postemergence
Text: as §1, §2

[22] = test system: morning glory (Ipomoea hederacea); test: Test B postemergence
Text: as §1, §2

[23] = test system: giant foxtail (Setaria faberii); test: Test B postemergence
Text: as §1, §2

[24] = test system: crabgrass (Digitaria sanguinalis); test: Test B postemergence
Text: as §1, §2

corn (Zea mays) [25] = test: Test B postemergence
Text: as §1, §2

[26] = test system: lambsquarters (Chenopodium album); test: Test B postemergence
Text: as §1, §2

[27] = test system: velvetleaf (Abutilon theophrasti); test: Test B postemergence
Text: as §1, §2

[28] = Preemergence, Rate 500 g/ha, scale 0 to 100, 0 no effect, 100 complete control
[29] = preemergence, Rate 125 g/ha, scale of 0 to 100 where 0 is no effect and 100 is complete control, 13 to 15 days
[30] = Rate 125 g/ha, scale 0 (no effect) to 100 (complete control), 13 to 15 days
[31] = Rate 500 g/ha, scale 0 to 100, 0 is no effect, 100 is complete control, 13 to 15 days
[32] = Rate 125 g/ha, scale 0 to 100, 0 no effect, 100 complete control

Structure (SMILES): CC(C)(C)c1ccn(C2CCN(c3cccc(OC(F)(F)C(F)F)c3)C2=O)n1 (stereo not drawn) [Compound 48]
- Plant response rating, Surinam grass [1, 28]: 0
- Plant response rating, Surinam grass [1, 29]: 0
- Plant response rating, Cocklebur [2, 28]: 0
- Plant response rating, Cocklebur [2, 29]: 0
- Plant response rating, Pigweed [3, 28]: 0
- Plant response rating, Pigweed [3, 29]: 0
- Plant response rating, Rice (rice (Oryza saliva) [4]; [28]): 0
- Plant response rating, Rice (rice (Oryza saliva) [4]; [29]): 0
- Plant response rating, Barnyardgrass [5, 28]: 0
- Plant response rating, Barnyardgrass [5, 29]: 0
- Plant response rating, Morningglory [6, 28]: 0
- Plant response rating, Morningglory [6, 29]: 0
- Plant response rating, Foxtail, Giant [7, 28]: 0
- Plant response rating, Foxtail, Giant [7, 29]: 0
- Plant response rating, Crabgrass [8, 28]: 80
- Plant response rating, Crabgrass [8, 29]: 0
- Plant response rating, Corn (corn (Zea mays) [9]; [28]): 0
- Plant response rating, Corn (corn (Zea mays) [9]; [29]): 0
- Plant response rating, Lambsquarters [10, 28]: 100
- Plant response rating, Lambsquarters [10, 29]: 100
- Plant response rating, Velvetleaf [11, 28]: 0
- Plant response rating, Velvetleaf [11, 29]: 0
- Rice plant response rating (rice (Oryza saliva) [12]; Rate 250 g/ha): 20
- Rice plant response rating (rice (Oryza saliva) [12]; Rate 500 g/ha): 50
- Plant response rating, Rice (rice (Oryza saliva) [12]; Rate 62 g/ha): 0
- Plant response rating, Rice (rice (Oryza saliva) [12]; Rate 125 g/ha): 0
- Barnyardgrass plant response rating ([13]; Rate 250 g/ha): 100
- Barnyardgrass plant response rating ([13]; Rate 500 g/ha): 100
- Plant response rating, Barnyardgrass ([13]; Rate 62 g/ha): 20
- Plant response rating, Barnyardgrass ([13]; Rate 125 g/ha): 40
- Flatsedge plant response rating ([14]; Rate 250 g/ha): 100
- Flatsedge plant response rating ([14]; Rate 500 g/ha): 100
- Plant response rating, Flatsedge ([14]; Rate 62 g/ha): 90
- Plant response rating, Flatsedge ([14]; Rate 125 g/ha): 90
- Ducksalad plant response rating ([15]; Rate 250 g/ha): 70
- Ducksalad plant response rating ([15]; Rate 500 g/ha): 90
- Plant response rating, Ducksalad ([15]; Rate 62 g/ha): 0
- Plant response rating, Ducksalad ([15]; Rate 125 g/ha): 20
- Plant response rating, Surinam grass [16, 30]: 0
- Plant response rating, Surinam grass [16, 31]: 0
- Plant response rating, Wheat [17, 30]: 0
- Plant response rating, Wheat [17, 31]: 0
- Plant response rating, Cocklebur [18, 30]: 0
- Plant response rating, Cocklebur [18, 31]: 0
- Plant response rating, Pigweed [19, 30]: 0
- Plant response rating, Pigweed [19, 31]: 0
- Plant response rating, Blackgrass [20, 30]: 0
- Plant response rating, Blackgrass [20, 31]: 0
- Plant response rating, Barnyardgrass [21, 30]: 0
- Plant response rating, Barnyardgrass [21, 31]: 0
- Plant response rating, Wild Oat (wild oat (Avena fatua); [30]): 0
- Plant response rating, Wild Oat (wild oat (Avena fatua); [31]): 0
- Plant response rating, Morningglory [22, 30]: 0
- Plant response rating, Morningglory [22, 31]: 0
- Plant response rating, Foxtail, Giant [23, 30]: 0
- Plant response rating, Foxtail, Giant [23, 31]: 0
- Plant response rating, Crabgrass [24, 30]: 0
- Plant response rating, Crabgrass [24, 31]: 0
- Plant response rating, Corn (corn (Zea mays) [25]; [30]): 0
- Plant response rating, Corn (corn (Zea mays) [25]; [31]): 0
- Plant response rating, Lambsquarters [26, 30]: 0
- Plant response rating, Lambsquarters [26, 31]: 80
- Plant response rating, Velvetleaf [27, 30]: 0
- Plant response rating, Velvetleaf [27, 31]: 0

Structure (SMILES): CCOc1cccc(N2CCC(n3ccc(C(C)CC)n3)C2=O)c1 (stereo not drawn) [Compound 126]
- Plant response rating, Surinam grass [1, 28]: 100
- Plant response rating, Surinam grass [1, 29]: 100
- Plant response rating, Cocklebur [2, 28]: 70
- Plant response rating, Cocklebur [2, 29]: 50
- Plant response rating, Pigweed [3, 28]: 100
- Plant response rating, Pigweed [3, 29]: 100
- Plant response rating, Rice (rice (Oryza saliva) [4]; [28]): 100
- Plant response rating, Rice (rice (Oryza saliva) [4]; [29]): 70
- Plant response rating, Barnyardgrass [5, 28]: 100
- Plant response rating, Barnyardgrass [5, 29]: 100
- Plant response rating, Morningglory [6, 28]: 100
- Plant response rating, Morningglory [6, 29]: 70
- Plant response rating, Foxtail, Giant [7, 28]: 100
- Plant response rating, Foxtail, Giant [7, 29]: 100
- Plant response rating, Crabgrass [8, 28]: 100
- Plant response rating, Crabgrass [8, 29]: 100
- Plant response rating, Corn (corn (Zea mays) [9]; [28]): 50
- Plant response rating, Corn (corn (Zea mays) [9]; [29]): 30
- Plant response rating, Lambsquarters [10, 28]: 100
- Plant response rating, Lambsquarters [10, 29]: 100
- Plant response rating, Velvetleaf [11, 28]: 60
- Plant response rating, Velvetleaf [11, 29]: 0
- Rice plant response rating (rice (Oryza saliva) [12]; Rate 250 g/ha): 20
- Rice plant response rating (rice (Oryza saliva) [12]; Rate 500 g/ha): 60
- Plant response rating, Rice (rice (Oryza saliva) [12]; Rate 62 g/ha): 0
- Plant response rating, Rice (rice (Oryza saliva) [12]; Rate 125 g/ha): 20
- Barnyardgrass plant response rating ([13]; Rate 250 g/ha): 100
- Barnyardgrass plant response rating ([13]; Rate 500 g/ha): 100
- Plant response rating, Barnyardgrass ([13]; Rate 62 g/ha): 35
- Plant response rating, Barnyardgrass ([13]; Rate 125 g/ha): 100
- Flatsedge plant response rating ([14]; Rate 250 g/ha): 100
- Flatsedge plant response rating ([14]; Rate 500 g/ha): 100
- Plant response rating, Flatsedge ([14]; Rate 62 g/ha): 100
- Plant response rating, Flatsedge ([14]; Rate 125 g/ha): 100
- Ducksalad plant response rating ([15]; Rate 250 g/ha): 100
- Ducksalad plant response rating ([15]; Rate 500 g/ha): 100
- Plant response rating, Ducksalad ([15]; Rate 62 g/ha): 60
- Plant response rating, Ducksalad ([15]; Rate 125 g/ha): 100
- Plant response rating, Surinam grass [16, 32]: 0
- Plant response rating, Surinam grass [16, 31]: 0
- Plant response rating, Wheat [17, 32]: 0
- Plant response rating, Cocklebur [18, 32]: 0
- Plant response rating, Cocklebur [18, 31]: 70
- Plant response rating, Pigweed [19, 32]: 30
- Plant response rating, Blackgrass [20, 32]: 0
- Plant response rating, Blackgrass [20, 31]: 0
- Plant response rating, Barnyardgrass [21, 32]: 0
- Plant response rating, Barnyardgrass [21, 31]: 80
- Plant response rating, Wild Oat (wild oat (Avena fatua); [32]): 0
- Plant response rating, Morningglory [22, 32]: 0
- Plant response rating, Foxtail, Giant [23, 32]: 0
- Plant response rating, Crabgrass [24, 32]: 0
- Plant response rating, Corn (corn (Zea mays) [25]; [32]): 0
- Plant response rating, Corn (corn (Zea mays) [25]; [31]): 0
- Plant response rating, Lambsquarters [26, 32]: 100
- Plant response rating, Velvetleaf [27, 32]: 0
